# Measurements: patent US20190060391A1, “POWDER FORMULATION HAVING HY[…] HYP[…] AND METHOD FOR PREPARING THE SAME” (INFINITUS (CHINA) COMPANY LTD., priority 2017, published 2019)
# Structures can show the parent of a compound that is named as a salt.
# Columns and labels:
# alloxan-induced mice = assay: Fasting blood glucose and glucose tolerance in alloxan hyperglycemia model mice; type: in vivo, ICR mouse; conditions: for Blood glucose decreasing rate of the mice: positive control 230 mg/Kg; for Blood glucose of the mice: positive control 230 mg/kg
# Description: (§1) Method for preparing the solution of the test sample (500 mg/kg): 2.3011 g of the test sample was precisely weighed and 46 mL of distilled water was added to prepare a solution of 0.05 g/mL, i.e., high-dose group of the test sample (500 mg/kg, 1 mL/100 g), which was equal to 30 times the recommended amount for human.
# (§2) Method for preparing the solution of the test sample (170 mg/kg): 0.6970 g of the test sample was precisely weighed and 41 mL of distilled water was added to prepare a solution of 0.017 g/mL, i.e., medium-dose group of the test sample (170 mg/kg, 1 mL/100 g), which was equal to 10 times the recommended amount for human.
# (§3) Method for preparing the solution of the test sample (85 mg/kg): 0.3396 g of the test sample was precisely weighed and 40 mL of distilled water was added to prepare a solution of 0.0085 g/mL, i.e., low-dose group of the test sample (85 mg/kg, 1 mL/100 g), which was equal to 5 times the recommended amount for human.
# Method for preparing the positive control sample: the metformin hydrochloride tablet was milled into fine powders by a mortar, 0.1470 g powder was precisely weighed and transferred to a 10 mL-centrifugal tube. 5 mL of distilled water was added by a pipette to prepare a solution with a concentration of 0.023 g/mL, i.e., metformin positive control group for mouse (230 mg/kg, 0.1 ml/10 g), which was equal to 13.5 times the recommended amount for human.
# The administration of test sample to the rats lasted for 45 days, and the administration to mice lasted for 55 days.
# After 3-day of adaptive housing with normal feeding, 15 mice were randomly chosen and subjected to fasting for 3 to 5 hours. The fasting blood glucose value was measured as the basal blood glucose value of this batch of animals. Thereafter, the mice were subjected to fasting for 24 hours (with free access to water). Except for the blank group and the negative control group, 96 mg/kg of alloxan (fresh prepared) were injected via caudal vein to establish the model, at an administration amount of 0.1 mL/10 g. 4 days later, the animals were fasted for 3 to 5 hours and the blood glucose was tested. Animals with blood glucose of 10 to 25 mmol/L were considered as hyperglycemia model animals. The fasting blood glucose value of mice was tested every two week. After the experiments, animals in each group were fasted for 3 to 4 hours, and the fasting blood glucose, glucose tolerance, blood glucose decreasing rate and the area under the blood glucose curve were tested.
# Body weight of mice = type: in vivo, ICR mouse; conditions: alloxan mice, positive control 230 mg/kg
# Excerpt: The mice were weighed after 1-day adaptive feed, and the mice were weighed once a week and recorded. The administration of test sample to the rats lasted for 45 days, and the administration to mice lasted for 55 days.
# [1] = Organ coefficient of mice; type: in vivo, ICR mouse; conditions: alloxan mice, positive control 230 mg/kg
# Description: The mice were subjected to euthanasia and dissection. Hearts, livers, spleens, lungs, kidneys and pancreases of the mice were weighed, imaged and recorded, respectively. The organ coefficients were calculated. In addition, pancreases from each group were respectively immersed into formalin-containing bottles, and the sections were sent for pathological examination.
# After administration of the test sample, the hearts, livers, spleens, lungs, kidneys and pancreases of the mice in each group were weighed respectively, and organ coefficients of each group were compared.
# diabetic rats [2] = assay: Fasting blood glucose and glucose tolerance in diabetic rats (high calorie feed plus alloxan); type: in vivo, SD rat; conditions: for Blood Glucose at 0 hour / Blood Glucose at 2th hour / Blood Glucose at 0.5 hour: rats, positive control 170 mg/kg
# Description: as §1, §2, §3
# Method for preparing the positive control sample: the metformin hydrochloride tablet was milled into fine powders by a mortar, 0.9329 g powder was precisely weighed and transferred to a 100 mL-beaker. 43 mL of distilled water was added by using a 100 mL-graduated cylinder, preparing solution with a concentration of 0.017 g/mL, i.e., metformin positive control group for rat (170 mg/kg, 1 ml/100 g), which was equal to 10 times the recommended amount for human.
# After 5-day of adaptive housing with normal feeding, the rats were fasted for 3 to 4 hours and blood samples were taken from the tails. The fasting blood glucose value, which was the blood glucose value before administration of glucose (0 hour), was tested. After administration of 2.5 g/kgBW glucose, the blood glucose level was tested at the 0.5 hour and the 2nd hour as the basal value of that batch of animals. The rats were divided into 6 groups according to the blood glucose value at 0 hour and the 0.5 hour, including one blank group, one positive control group, one model group and 3 dosing groups of the test sample. There were 20 rats in the high-dose group, and 18 rats in the other groups. The blank group was not treated. The positive control group was administered with metformin solution by intragastric gavage. The 3 dosing groups of the test sample were administered with test sample solutions of different concentrations by intragastric gavage. The model group was administered with the solvent of the same volume. […] Normal feeds were provided to all groups. One week later, high calorie feeds were provided to the model group, positive control group and three dosing groups of the test sample. 30 days after the feeding, the rats were fasted for 24 hours. The model group and the three dosing groups of the test sample were respectively peritoneal injected with alloxan of 200 mg/kgBW (the injection amount was […] weight) on the base of high calorie feed. The model group and 3 dosing groups of the test sample were continuously fed on high calorie feeds for 3 days. When the experiment ended, animals in each group were fasted for 3 to 4 hours, and the fasting blood glucose, glucose tolerance and area under the blood glucose curve were measured.
# diabetic rats [3] = assay: Cholesterol level and triglyceride level in serum of rats; type: in vivo, SD rat; conditions: positive control 170 mg/kg
# Description: After the experiment, the rats in each group were fasted for 3 to 4 hours and peritoneal injected with pentobarbital sodium solution (1 mL/100 g) for anesthesia. 8 mL of blood was taken from the femoral artery and centrifuged at 4500 r for 6 minutes at 4° C. The serum was taken and the cholesterol level was tested by a cholesterol kit, and the triglyceride level was tested by a triglyceride kit.
# Body weight of rats = type: in vivo, SD rat; set-up: unit not given here; conditions: diabetic rats, positive control 170 mg/kg
# Excerpt: The rats were weighed after 1-day adaptive feed, and the rats were weighed once a week and recorded.
# [4] = Organ coefficient of rats; type: in vivo, SD rat; conditions: diabetic rats, positive control 170 mg/kg
# Description: The rats were subjected to euthanasia and dissection. Hearts, livers, spleens, lungs, kidneys and parts of the pancreases of the rats were weighed, imaged and recorded, respectively. The organ coefficients were calculated. In addition, pancreases from each group were respectively immersed into formalin-containing bottles.
compound,measurement,setting,value
"CN(C)C(=N)N=C(N)N [metformin, metformin hydrochloride]",Blood glucose decreasing rate of the mice,alloxan-induced mice; 45 d,−20.06% ± 0.30
same,Blood glucose decreasing rate of the mice,alloxan-induced mice; 55 d,21.60% ± 0.48
same,Blood glucose of the mice,alloxan-induced mice; 0 d,22.87 ± 3.66 mmol/L
same,Blood glucose of the mice,alloxan-induced mice; 16 d,13.60 ± 4.82 mmol/L
same,Blood glucose of the mice,alloxan-induced mice; 30 d,15.57 ± 5.85 mmol/L
same,Blood glucose of the mice,alloxan-induced mice; 45 d,18.28 ± 5.86 mmol/L
same,Blood glucose of the mice,alloxan-induced mice; 55 d,17.93 ± 10.23 mmol/L
same,Effect on fasting blood glucose vs model group (in words),alloxan-induced mice; positive control group,significantly improved symptom of the hyperglycemia
same,Changes of body weight of mice,Body weight of mice; 1 d,21.1 ± 2.0 g
same,Changes of body weight of mice,Body weight of mice; 2 d,23.3 ± 2.3 g
same,Changes of body weight of mice,Body weight of mice; 6 d,22.1 ± 3.1 g
same,Changes of body weight of mice,Body weight of mice; 8 d,22.8 ± 5.8 g
same,Changes of body weight of mice,Body weight of mice; 11 d,23.1 ± 4.0 g
same,Changes of body weight of mice,Body weight of mice; 20 d,25.6 ± 5.4 g
same,Changes of body weight of mice,Body weight of mice; 27 d,25.3 ± 4.2 g
same,Changes of body weight of mice,Body weight of mice; 34 d,27.8 ± 4.1 g
same,Changes of body weight of mice,Body weight of mice; 41 d,29.1 ± 4.8 g
same,Changes of body weight of mice,Body weight of mice; 48 d,27.0 ± 5.4 g
same,Changes of body weight of mice,Body weight of mice; 55 d,27.2 ± 5.2 g
same,Heart Coefficient,[1],0.50 ± 0.09
same,Kidney Coefficient,[1],2.17 ± 0.61
same,Liver Coefficient,[1],4.96 ± 1.67
same,Lung Coefficient,[1],0.67 ± 0.14
same,Pancreas Coefficient,[1],0.76 ± 0.31
same,Spleen Coefficient,[1],0.47 ± 0.37
same,Area under the blood glucose curve vs model group (in words),"diabetic rats [2]; diabetic rats, glucose tolerance test",showed significant differences
same,Effect on fasting blood glucose vs model group (in words),"diabetic rats [2]; diabetic rats, positive control group",significantly improved symptom of the hyperglycemia
same,Blood Glucose at 0 hour,diabetic rats [2]; 4D,6.00 ± 0.87
same,Blood Glucose at 2th hour,diabetic rats [2]; 4D,5.75 ± 0.97
same,Blood Glucose at 0.5 hour,diabetic rats [2]; 4D,8.33 ± 1.54
same,Blood Glucose at 0 hour,diabetic rats [2]; 45D,12.05 ± 4.98
same,Blood Glucose at 2th hour,diabetic rats [2]; 45D,13.31 ± 5.83
same,Blood Glucose at 0.5 hour,diabetic rats [2]; 45D,15.98 ± 4.87
same,Cholesterol Index,diabetic rats [3],3.71 ± 1.57
same,Triglyceride Index,diabetic rats [3],9.47 ± 5.29
same,Weight changes of rats,Body weight of rats; 3 d,207.00 ± 10.91
same,Weight changes of rats,Body weight of rats; 6 d,225.22 ± 12.01
same,Weight changes of rats,Body weight of rats; 8 d,244.28 ± 10.93
same,Weight changes of rats,Body weight of rats; 12 d,277.50 ± 8.25
same,Weight changes of rats,Body weight of rats; 22 d,325.89 ± 18.39
same,Weight changes of rats,Body weight of rats; 28 d,373.67 ± 21.40
same,Weight changes of rats,Body weight of rats; 35 d,396.22 ± 23.32
same,Weight changes of rats,Body weight of rats; 42 d,403.83 ± 21.22
same,Weight changes of rats,Body weight of rats; 45 d,361.19 ± 27.43
same,Heart Coefficient,[4],0.36 ± 0.06
same,Kidney Coefficient,[4],0.88 ± 0.20
same,Liver Coefficient,[4],3.36 ± 0.48
same,Lung Coefficient,[4],0.53 ± 0.15
same,Pancreas Coefficient,[4],0.37 ± 0.13
same,Spleen Coefficient,[4],0.16 ± 0.09
